Paper PMC6273954, “Antileishmanial Activity and Structure-Activity Relationship of Triazolic Compounds Derived from the Neolignans Grandisin, Veraguensin, and Machilin G” (Molecules, 2016)
Converted amounts (≈) assume the structure as drawn. Where two headings read alike, the source gives them in different places.

How the values were obtained:
[1] = test system: L. (L.) amazonensis intracellular amastigotes; test: In vitro antileishmanial activity on intracellular amastigotes in peritoneal macrophages; format: cell-based, Leishmania (Leishmania) amazonensis; set-up: key to activity class against intracellular amastigotes: active (<20 µM); moderately active (20–50 µM); potentially inactive (>50 µM); conditions: for IC50: Leishmania amazonensis, Peritoneal macrophage; for concentration from which infection index was significantly decreased / effect on infection index: versus untreated cells
Description: In vitro antileishmanial activity was evaluated on peritoneal macrophages infected with. L. (L.) amazonensis intracellular amastigotes. Parasites (IFLA/BR/1967/PH8 strain) were routinely isolated from BALB/c mice and maintained as promastigotes at 25 °C in Schneider's Insect Medium (Sigma-Aldrich®, St. Louis, MO, USA) supplemented with 20% fetal calf serum (FCS-Cultilab® Campinas, Brazil) and 140 μg·mL^-1 gentamicin (Sigma-Aldrich®). Macrophages were obtained from peritoneal wash of BALB/c mice after euthanasia. 10 mL of RPMI 1640 (Sigma-Aldrich®) supplemented with 2% L-glutamine, 2.8% bicarbonate buffer, 100 U·mL^-1 penicillin and […] streptomycin were injected into the peritoneal cavity. After massage area, liquid was aspirated and transferred to tubes on ice. Peritoneal cells were quantified in Neubauer chamber after cellular exclusion with Trypan Blue staining (Sigma-Aldrich®). Peritoneal cells (1 × 10^5 cells/well) were added to 24-well plates containing circular coverslips. Plates were incubated for one hour at 37 °C/5% CO2 to allow cell adhesion and then 1 × 10^6 L. (L.) amazonensis promastigotes were added to each well. Plates were incubated at 35 °C/5% CO2 for four hours and then cells were treated for 24 h with synthetic compounds 4-19 (6.25-50 μg·mL^-1). Amphotericin B (Sigma-Aldrich®) was used as the reference drug (0.25 to 2 μg·mL^-1) and untreated cells were used as negative control. Coverslips were processed as described by Rizk et al.. The overall number of amastigotes was determined by counting 100 cells in six replicates. The half maximal inhibitory concentration (IC50) was calculated using a nonlinear regression curve. Infection index was obtained as described by […] et al..

J774.A1 cells = test: Cytotoxicity assay (sulforhodamine B); format: cell-based, murine; conditions: for SI (selectivity index): IC50 on mammalian cells/IC50 on intracellular amastigotes; for IC50: Mus musculus, J774.A1, murine macrophages, 48 h, sulforhodamine B; for cytotoxicity on mammalian cells: J774.A1 macrophages
Description: Amphotericin B (Sigma-Aldrich®) was used as the reference drug (0.025–25 µg·mL^−1). Cell growth was evaluated according to Skehan et al. using the sulforhodamine B assay. Dimethyl sulfoxide (DMSO, Vetec®, Rio de Janeiro, Brazil) was used as negative control at the concentration used to solubilize the highest concentration of compounds. IC50 was calculated by nonlinear regression curve. Selectivity index was calculated according to Medeiros et al..

[2] = test system: L. amazonensis infected macrophages; test: Nitric oxide production by infected and treated peritoneal cells (Griess); format: cell-based, BALB/c mice
Description: To evaluate the nitric oxide production (NO) by infected and treated peritoneal cells, 50 µL of culture supernatant from the antileishmanial assay were collected and incubated with equal volume of Griess reagent (1% sulfanilamide /0.1% naphthalene diamine in 5% phosphoric acid) for 10 min at room temperature. According to Ding et al., the absorbance was determined at 540 nm and converted to NO2^− (µM) by comparing to a standard curve of known concentrations of sodium nitrite (1–10 µM) in RPMI medium (Sigma-Aldrich®).

[3] = test system: L. (L.) amazonensis promastigotes; conditions: cited from earlier work
[4] = test system: L. donovani promastigote forms; set-up: method as in PMID 18688887; conditions: cited from earlier work
[5] = in Mus musculus, infected BALB/c peritoneal macrophages, treated 24 h, read-out: Intracellular Amastigotes IC50
[6] = classified by IC50 according to Upegui et al.
[7] = at the highest concentration(s) tested, compared to control
[8] = 24 h, classified by IC50 according to Upegui et al., read-out: activity class against intracellular amastigotes
[9] = 24 h after treatment, compared to untreated infected cells (control)
[10] = at the lowest concentrations tested, compared to control
[11] = highest reduction reached / at the highest concentration, 24 h after treatment

IC50 [1, 5] [µM]	IC50 [1, 8] [µM]	Structure (SMILES)	SI (selectivity index) (J774.A1 cells)	IC50 (J774.A1 cells) [µM]	activity class against intracellular amastigotes [1, 6]	nitric oxide (NO) production [2, 9]	other results
0.7		C[C@@H]1[C@H](O)[C@@H](C)/C=C/C=C/C=C/C=C/C=C/C=C/C=C/[C@H](O[C@@H]2O[C@H](C)[C@@H](O)[C@H](N)[C@@H]2O)C[C@@H]2O[C@](O)(C[C@@H](O)C[C@@H](O)[C@H](O)CC[C@@H](O)C[C@@H](O)CC(=O)O[C@H]1C)C[C@H](O)[C@H]2C(=O)O [Amphotericin B, reference compound]	3.1	2.2			
13.1		COc1ccc(-c2cn(-c3ccc(OC)cc3)nn2)cc1 [Compound 4]	66.9	877	active		nitric oxide (NO) production [2, 7]: increase of NO production
21.3	20 to 50	COc1ccc(-c2cn(-c3ccc(OC)c(OC)c3)nn2)cc1OC [Compound 5]	3.6	76.4			concentration from which infection index was significantly decreased ([1]; 24 h after treatment): 12.5 µg/mL; nitric oxide (NO) production ([2]; at 25 µg·mL−1, compared to control): lower than control
9.4		COc1cc(-c2cn(-c3cc(OC)c(OC)c(OC)c3)nn2)cc(OC)c1OC [Compound 6]	>66.2	> 623	active	increased production of nitric oxide	concentration from which infection index was significantly decreased ([1]; 24 h after treatment): 6.25 µg/mL; reduction of infection index ([1]; at 50 µg·mL−1, 24 h after treatment): 98.6%; activity on promastigote forms [3]: inactive on promastigote forms
20.4	20 to 50	c1cc2c(cc1-c1cn(-c3ccc4c(c3)OCO4)nn1)OCO2 [Compound 7]	4.2	86.2			
16		COc1ccc(-c2cn(-c3ccc(OC)c(OC)c3)nn2)cc1 [Compound 8]	4.9	79.2	active		
18.3		COc1ccc(-n2cc(-c3ccc(OC)c(OC)c3)nn2)cc1 [Compound 9]	1.2	22.6	active		
16.8		COc1ccc(-c2cn(-c3cc(OC)c(OC)c(OC)c3)nn2)cc1 [Compound 10]	3.9	65.4	active		
16.5		COc1ccc(-n2cc(-c3cc(OC)c(OC)c(OC)c3)nn2)cc1 [Compound 11]	4.1	67.5	active		nitric oxide (NO) production [2, 7]: higher than control; nitric oxide (NO) production [2, 10]: lower than untreated cells
14.8		COc1ccc(-c2cn(-c3ccc4c(c3)OCO4)nn2)cc1 [Compound 12]	6.5	96.5	active	increase in NO production	nitric oxide (NO) production [2, 7]: increase of NO production
50.7		COc1ccc(-n2cc(-c3ccc4c(c3)OCO4)nn2)cc1 [Compound 13]	2.6	135	did not show potential activity	increase in NO production	
5.6		COc1ccc(-c2cn(-c3cc(OC)c(OC)c(OC)c3)nn2)cc1OC [Compound 14]	14.1	79.1	active	induced nitric oxide production	effect on infection index ([1]; 24 h after treatment): reduced the infection index at all concentrations tested; reduction of infection index [1, 11]: 86.4%; cytotoxicity on mammalian cells (J774.A1 cells): low cytotoxicity on mammalian cells; nitric oxide (NO) production [2, 10]: significantly induced NO production
29.2	20 to 50	COc1ccc(-n2cc(-c3cc(OC)c(OC)c(OC)c3)nn2)cc1OC [Compound 15]	2.6	76.9			
32.7	20 to 50	COc1ccc(-c2cn(-c3ccc4c(c3)OCO4)nn2)cc1OC [Compound 16]	>23.5	> 768		significantly induce NO production	
29.9	20 to 50	COc1ccc(-n2cc(-c3ccc4c(c3)OCO4)nn2)cc1OC [Compound 17]	0.3	9.2			cytotoxicity on mammalian cells (J774.A1 cells): toxic for the macrophages
29.8	20 to 50	COc1cc(-c2cn(-c3ccc4c(c3)OCO4)nn2)cc(OC)c1OC [Compound 18]	2.2	66.9		did not induce a significant production of NO	reduction of infection index [1, 11]: 92.1%
4.4		COc1cc(-n2cc(-c3ccc4c(c3)OCO4)nn2)cc(OC)c1OC [Compound 19]	10.6	46.9	active	induced nitric oxide production	effect on infection index ([1]; 24 h after treatment): significantly reduced the infection index; cytotoxicity on mammalian cells (J774.A1 cells): low cytotoxicity on mammalian cells; nitric oxide (NO) production [2, 7]: twice as high than control; IC50 ([3]; read-out: IC50 against L. (L.) amazonensis promastigote forms): 7.2 µM
		COc1cccc2c1C(=O)c1c(O)c3c(c(O)c1C2=O)C[C@@](O)(C(=O)CO)C[C@@H]3O[C@H]1C[C@H](N)[C@H](O)[C@H](C)O1 [Doxorubicin, reference compound]		0.5			
		COc1cc([C@@H]2O[C@@H](c3cc(OC)c(OC)c(OC)c3)[C@H](C)[C@H]2C)cc(OC)c1OC [grandisin]					IC50 on L. (L.) amazonensis promastigotes [3]: 42.4 µg/mL (≈ 98 µM); IC50 ([3]; read-out: IC50 on L. (L.) amazonensis promastigotes): 98 µM
		COc1ccc([C@H]2O[C@@H](c3ccc(OC)c(OC)c3)[C@H](C)[C@H]2C)cc1OC [veraguensin]					IC50 [4]: 48.3 µM; activity on L. donovani promastigote forms [4]: 18 µg/mL
